Like-named read-outs stand apart in the source and are kept apart here.
Key:
HIV = assay: microbe, parasite or virus in culture; format: cell-based; conditions: for IC50: read-out: IC50
[1] = Toxicokinetics and 7-day toxicity after oral administration of CMX157 to rats; format: in vivo; conditions: rat plasma
HIV-1IIIB = assay: TCID50 determination of drug-treated HIV-1IIIB; format: cell-based; set-up: TCID50, XTT Endpoint / TCID50, RT Endpoint / TCID50, P24 Endpoint: unit not given here
[2] = PANEL 40, M41L + L210W + T215Y + M184V
[3] = PANEL 41, M41L + L210W + T215Y + M184V
[4] = PANEL 44, D67N + K70R + T215F + K219E + M184V
[5] = virus treated 2 hours with 125 nM drug
[6] = virus treated 2 hours with 250 nM drug
[7] = virus treated 2 hours with 500 nM drug
[8] = virus treated 2 hours with 1000 nM drug

C[C@H](Cn1cnc2c(N)ncnc21)OCP(=O)(O)O [TFV, (R)-9-(2-phosphonylmethoxypropyl)adenine]
IC50 Fold Change (HIV; PANEL 1, WT): 0.79 | IC50 (HIV; PANEL 1, WT): 613 nM | IC50 Fold Change (HIV; PANEL 2, WT): 0.85 | IC50 (HIV; PANEL 2, WT): 652 nM | IC50 Fold Change (HIV; PANEL 3, 6 TAMs, no 184): 3.47 | IC50 (HIV; PANEL 3, 6 TAMs, no 184): 2670 nM | IC50 Fold Change (HIV; PANEL 6, 6 TAMs + 184): 2.16 | IC50 (HIV; PANEL 6, 6 TAMs + 184): 1670 nM | IC50 Fold Change (HIV; PANEL 7, 184V): 0.69 | IC50 (HIV; PANEL 7, 184V): 534 nM | IC50 Fold Change (HIV; PANEL 9, 69ins, no 184): 22.00 | IC50 (HIV; PANEL 9, 69ins, no 184): 17000 nM | IC50 Fold Change (HIV; PANEL 12, 69ins + 184): 4.72 | IC50 (HIV; PANEL 12, 69ins + 184): 3640 nM | IC50 Fold Change (HIV; PANEL 14, 65R, no 184): 1.71 | IC50 (HIV; PANEL 14, 65R, no 184): 1320 nM | IC50 Fold Change (HIV; PANEL 15, 65R + 184V): 1.22 | IC50 (HIV; PANEL 15, 65R + 184V): 940 nM | IC50 Fold Change (HIV; PANEL 17, L74V): 0.62 | IC50 (HIV; PANEL 17, L74V): 476 nM | IC50 Fold Change (HIV; PANEL 19, L74V + M184V): 0.29 | IC50 (HIV; PANEL 19, L74V + M184V): 227 nM | IC50 Fold Change (HIV; PANEL 26, 151M, no 184): 2.26 | IC50 (HIV; PANEL 26, 151M, no 184): 1740 nM | IC50 Fold Change (HIV; PANEL 28, 151M + 184): 1.43 | IC50 (HIV; PANEL 28, 151M + 184): 1100 nM | IC50 Fold Change (HIV; PANEL 29, L74V − SDM): 0.69 | IC50 (HIV; PANEL 29, L74V − SDM): 535 nM | IC50 Fold Change (HIV; PANEL 30, M184V − SDM): 0.54 | IC50 (HIV; PANEL 30, M184V − SDM): 413 nM | IC50 Fold Change (HIV; PANEL 31, K65R − SDM): 2.01 | IC50 (HIV; PANEL 31, K65R − SDM): 1550 nM | IC50 Fold Change (HIV; PANEL 33, T215Y): 2.39 | IC50 (HIV; PANEL 33, T215Y): 1840 nM | IC50 Fold Change (HIV; PANEL 34, T215Y + M184V): 0.81 | IC50 (HIV; PANEL 34, T215Y + M184V): 624 nM | IC50 Fold Change (HIV; PANEL 35, M41L + T215Y): 1.84 | IC50 (HIV; PANEL 35, M41L + T215Y): 1420 nM | IC50 Fold Change (HIV; PANEL 37, M41L + T215Y + M184V): 1.34 | IC50 (HIV; PANEL 37, M41L + T215Y + M184V): 1030 nM | IC50 Fold Change (HIV; PANEL 38, M41L + L210W + T215Y): 2.80 | IC50 (HIV; PANEL 38, M41L + L210W + T215Y): 2160 nM | IC50 Fold Change (HIV; PANEL 39, M41L + L210W + T215Y): 3.01 | IC50 (HIV; PANEL 39, M41L + L210W + T215Y): 2320 nM | IC50 Fold Change (HIV; [2]): 0.97 | IC50 (HIV; [2]): 751 nM | IC50 Fold Change (HIV; [3]): 1.02 | IC50 (HIV; [3]): 789 nM | IC50 Fold Change (HIV; PANEL 42, D67N + K70R): 2.56 | IC50 (HIV; PANEL 42, D67N + K70R): 1970 nM | IC50 Fold Change (HIV; [4]): 0.91 | IC50 (HIV; [4]): 703 nM | IC50 Fold Change (HIV; PANEL 45, L210W + T215Y): 1.34 | IC50 (HIV; PANEL 45, L210W + T215Y): 1030 nM | IC50 Fold Change (HIV; PANEL 46, D67N + K70E): 0.96 | IC50 (HIV; PANEL 46, D67N + K70E): 738 nM | IC50 Fold Change (HIV; PANEL 47, D67N + K70E + M184V): 0.64 | IC50 (HIV; PANEL 47, D67N + K70E + M184V): 495 nM | IC50 Fold Change (HIV; PANEL 48, K70E + M184V): 0.61 | IC50 (HIV; PANEL 48, K70E + M184V): 472 nM | AUC0-24 ([1]; oral CMX157 10 mg/kg, day 1): 510.8 ng·h/mL | AUC0-∞ ([1]; oral CMX157 10 mg/kg, day 1): 775.2 ng·h/mL | Cmax ([1]; oral CMX157 10 mg/kg, day 1): 55.35 ng/mL | Tmax ([1]; oral CMX157 10 mg/kg, day 1): 2.0 h | t1/2elim ([1]; oral CMX157 10 mg/kg, day 1): 10.9 h | AUC0-24 ([1]; oral CMX157 10 mg/kg, day 7): 964.7 ng·h/mL | AUC0-∞ ([1]; oral CMX157 10 mg/kg, day 7): 1,226.9 ng · h/ml | Cmax ([1]; oral CMX157 10 mg/kg, day 7): 49.55 ng/mL | Tmax ([1]; oral CMX157 10 mg/kg, day 7): 2.4 h | t1/2elim ([1]; oral CMX157 10 mg/kg, day 7): 9.2 h | AUC0-24 ([1]; oral CMX157 30 mg/kg, day 1): 1,456.1 ng · h/ml | AUC0-∞ ([1]; oral CMX157 30 mg/kg, day 1): 1,808.1 ng · h/ml | Cmax ([1]; oral CMX157 30 mg/kg, day 1): 109.10 ng/mL | Tmax ([1]; oral CMX157 30 mg/kg, day 1): 4.0 h | t1/2elim ([1]; oral CMX157 30 mg/kg, day 1): 10.1 h | AUC0-24 ([1]; oral CMX157 30 mg/kg, day 7): 2,363.4 ng · h/ml | AUC0-∞ ([1]; oral CMX157 30 mg/kg, day 7): 2,790.5 ng · h/ml | Cmax ([1]; oral CMX157 30 mg/kg, day 7): 149.25 ng/mL | Tmax ([1]; oral CMX157 30 mg/kg, day 7): 4.0 h | t1/2elim ([1]; oral CMX157 30 mg/kg, day 7): 7.6 h | AUC0-24 ([1]; oral CMX157 100 mg/kg, day 1): 3,039.3 ng · h/ml | AUC0-∞ ([1]; oral CMX157 100 mg/kg, day 1): 3,639.5 ng · h/ml | Cmax ([1]; oral CMX157 100 mg/kg, day 1): 181.40 ng/mL | Tmax ([1]; oral CMX157 100 mg/kg, day 1): 12.0 h | t1/2elim ([1]; oral CMX157 100 mg/kg, day 1): 7.2 h | AUC0-24 ([1]; oral CMX157 100 mg/kg, day 7): 5,715.4 ng · h/ml | AUC0-∞ ([1]; oral CMX157 100 mg/kg, day 7): 7,373.4 ng · h/ml | Cmax ([1]; oral CMX157 100 mg/kg, day 7): 322.00 ng/mL | Tmax ([1]; oral CMX157 100 mg/kg, day 7): 12.0 h | t1/2elim ([1]; oral CMX157 100 mg/kg, day 7): 9.0 h | effect on viral replication (HIV-1IIIB; up to 1000 nM, 2 hours): no discernible effect | Fold Decrease From VC, P24 Endpoint (HIV-1IIIB; [5]): (0) Fold | Fold Decrease From VC, RT Endpoint (HIV-1IIIB; [5]): (1.1) Fold | Fold Decrease From VC, XTT Endpoint (HIV-1IIIB; [5]): (1.1) Fold | TCID50, P24 Endpoint (HIV-1IIIB; [5]): 43056 | TCID50, RT Endpoint (HIV-1IIIB; [5]): 72449 | TCID50, XTT Endpoint (HIV-1IIIB; [5]): 4027 | Fold Decrease From VC, P24 Endpoint (HIV-1IIIB; [6]): (0) Fold | Fold Decrease From VC, RT Endpoint (HIV-1IIIB; [6]): (1.1) Fold | Fold Decrease From VC, XTT Endpoint (HIV-1IIIB; [6]): (0) Fold | TCID50, P24 Endpoint (HIV-1IIIB; [6]): 36227 | TCID50, RT Endpoint (HIV-1IIIB; [6]): 72449 | TCID50, XTT Endpoint (HIV-1IIIB; [6]): 4529 | Fold Decrease From VC, P24 Endpoint (HIV-1IIIB; [7]): (0) Fold | Fold Decrease From VC, RT Endpoint (HIV-1IIIB; [7]): (0) Fold | Fold Decrease From VC, XTT Endpoint (HIV-1IIIB; [7]): (0) Fold | TCID50, P24 Endpoint (HIV-1IIIB; [7]): 37328 | TCID50, RT Endpoint (HIV-1IIIB; [7]): 81289 | TCID50, XTT Endpoint (HIV-1IIIB; [7]): 4529 | Fold Decrease From VC, P24 Endpoint (HIV-1IIIB; [8]): (0) Fold | Fold Decrease From VC, RT Endpoint (HIV-1IIIB; [8]): (1.3) Fold | Fold Decrease From VC, XTT Endpoint (HIV-1IIIB; [8]): (0) Fold | TCID50, P24 Endpoint (HIV-1IIIB; [8]): 36227 | TCID50, RT Endpoint (HIV-1IIIB; [8]): 64570 | TCID50, XTT Endpoint (HIV-1IIIB; [8]): 4529

From US8993542B2, “Methods of treating viral infections” (priority 2008, dated 2015)
